Patent US10143771B2, “Antioxidant and antimicrobial wound dressing materials” (KCI USA, Inc., priority 2003, dated 2018)

Legend:
[1] = tested on: Staphylococcus aureus; test: Zone of inhibition test, Procedure 2; format: cell-based; settings: Staphylococcus aureus on DSA plates, 37° C., over the test period (every 24 hours for 72 hours)
Method: (§1) Six 2 cm×2 cm squares of each sample are cut out in sterile conditions. On day one of the experiment, cultures of both Pseudomonas aeruginosa (ATCC 27853 and various PSI strains) and Staphylococcus aureus (provided by the Dept of Clinical Microbiology and Pathology) are incubated aerobically at 37° C. for 24 hours on Diagnostic Sensitivity Agar (DSA). After 24 hours test samples are each placed on a DSA plate and immediately wetted with 0.5 mls of a buffer solution. Three squares of sample are placed on plates inoculated with Pseudomonas aeruginosa and three are placed on plates inoculated with Staphylococcus aureus. The plates are then incubated at 37° C. for 24 hours. The zone of inhibited growth around the sample is then measured using calipers, and the test sample is placed on a new inoculated DSA plate. A swab test is carried out on the area beneath the sample to determine if the sample is bacteriostatic if not bactericidal by smearing the swab on a DSA plate and incubating it for 24 hours and then examining the growth.

[2] = tested on: Pseudomonas aeruginosa (ATCC 27853 and various PSI strains); test: Zone of inhibition test, Procedure 2; format: cell-based; settings: Pseudomonas aeruginosa on DSA plates, 37° C., over the test period (every 24 hours for 72 hours)
Method: as §1

## O=[N+]([O-])[O-].[Ag+] [silver nitrate solution (0.5%), silver nitrate]
[1]
  zone of inhibition: zones of inhibition were observed
[2]
  zone of inhibition: zones of inhibition were observed
